In patent US20110028318A1, “HERBICIDAL COMPOUNDS BASED ON N-AZINYL-N'-PYRIDYLSULPHONYLUREAS” (Bayer CropScience AG, priority 2007, published 2011):

What was measured:
Stellaria media [1] = test: Pre-emergence herbicidal activity, STEME; type: in vivo; conditions: 80 g/ha, WP formulation, scored visually after approximately 3 weeks vs untreated controls (100% = plants have died)
From the text: (§1) Seeds of monocotyledonous or dicotyledonous weed plants or crop plants are placed in sandy loam in wood fiber pots and covered with soil. The compounds according to the invention, which are formulated as wettable powders (WP) are then applied to the surface of the soil cover in the form of an aqueous suspension or emulsion with a water application rate of 600 I/ha (converted), with addition of 0.2% wetter. After the treatment, the pots are placed in the greenhouse and maintained under good growth conditions for the test plants. After approximately 3 weeks, the activity of the preparation is scored visually in comparison with untreated controls (herbicidal activity in percent (%): 100% activity=plants have died, 0% activity=like control plants).

Alopecurus myosuroides [2] = test: Pre-emergence herbicidal activity, ALOMY; type: in vivo; conditions: 80 g/ha, WP formulation, scored visually after approximately 3 weeks vs untreated controls (100% = plants have died)
From the text: as §1

Matricaria inodora = test: Pre-emergence herbicidal activity, MATIN; type: in vivo; conditions: 80 g/ha, WP formulation, scored visually after approximately 3 weeks vs untreated controls (100% = plants have died)
From the text: as §1

Lolium multiflorum = test: Post-emergence herbicidal activity, LOLMU; type: in vivo; conditions: dosage rate 80 g/ha, scored visually after approx. 3 weeks vs untreated controls
Procedure: (§2) Seeds of monocotyledonous or dicotyledonous weed plants or crop plants are placed in sandy loam in wood fiber pots, covered with soil and grown in the greenhouse under good growth conditions. 2 to 3 weeks after sowing, the test plants are treated in the one-leaf stage. The compounds according to the invention, which are formulated as wettable powders (WP), are then sprayed onto the green plant parts in the form of an aqueous suspension or emulsion with a water application rate of 600 I/ha (converted) with addition of 0.2% of wetter. After the test plants have been left to stand in the greenhouse for approximately 3 weeks under optimal growth conditions, the activity of the preparation is scored visually in comparison with untreated controls (herbicidal activity in percent (%): 100% activity=plants have died, 0% activity=like control plants).

Pharbitis purpurea = test: Post-emergence herbicidal activity, PHBPU; type: in vivo, Pharbitis/Ipomoea purpurea; conditions: dosage rate 80 g/ha, scored visually after approx. 3 weeks vs untreated controls
Procedure: as §2

Alopecurus myosuroides [3] = test: Post-emergence herbicidal activity, ALOMY; type: in vivo; conditions: dosage rate 80 g/ha, scored visually after approx. 3 weeks vs untreated controls
Procedure: as §2

Stellaria media [4] = test: Post-emergence herbicidal activity, STEME; type: in vivo; conditions: dosage rate 80 g/ha, scored visually after approx. 3 weeks vs untreated controls
Procedure: as §2

Viola tricolor = test: Post-emergence herbicidal activity, VIOTR; type: in vivo; conditions: dosage rate 80 g/ha, scored visually after approx. 3 weeks vs untreated controls
Procedure: as §2

Amaranthus retroflexus = test: Post-emergence herbicidal activity, AMARE; type: in vivo; conditions: dosage rate 80 g/ha, scored visually after approx. 3 weeks vs untreated controls
Procedure: as §2

Abutilon theophrasti = test: Post-emergence herbicidal activity, ABUTH; type: in vivo; conditions: dosage rate 80 g/ha, scored visually after approx. 3 weeks vs untreated controls
Procedure: as §2

Echinochloa crus-galli = test: Post-emergence herbicidal activity, ECHCG; type: in vivo; conditions: dosage rate 80 g/ha, scored visually after approx. 3 weeks vs untreated controls
Procedure: as §2

logp = type: physicochemical

SMILES | herbicidal activity in percent, STEME (Stellaria media [1]) [%] | herbicidal activity in percent, ALOMY (Alopecurus myosuroides [2]) [%] | herbicidal activity in percent, MATIN (Matricaria inodora) [%] | herbicidal activity LOLMU (Lolium multiflorum) [%] | herbicidal activity PHBPU (Pharbitis purpurea) [%] | herbicidal activity ALOMY (Alopecurus myosuroides [3]) [%] | herbicidal activity STEME (Stellaria media [4]) [%] | herbicidal activity VIOTR (Viola tricolor) [%] | herbicidal activity AMARE (Amaranthus retroflexus) [%] | herbicidal activity ABUTH (Abutilon theophrasti) [%] | herbicidal activity ECHCG (Echinochloa crus-galli) [%] | melting point [°C] | logP (logp)
COc1cc(OC)nc(NC(=O)NS(=O)(=O)c2ncccc2C2=NOCC2)n1 [Ia-2] | 90 | 90 | 90 | 90 | 90 | 80 | 90 | 90 | 90 | 100 | 100 |  | 
COc1cc(OC)nc(NC(=O)NS(=O)(=O)c2ncccc2C2=NOC(C)C2)n1 (centres unmarked) [Ia-11] | 80 | 90 | 80 | 100 | 90 | 90 | 100 | 90 | 100 | 90 | 100 |  | 
CCC1CC(c2cccnc2S(=O)(=O)NC(=O)Nc2nc(C)nc(OC)n2)=NO1 (centres unmarked) [Ia-18] |  |  |  |  |  |  |  |  |  |  | 80 |  | 
CCCC1CC(c2cccnc2S(=O)(=O)NC(=O)Nc2nc(C)cc(OC)n2)=NO1 (centres unmarked) [Ia-17] |  | 90 |  | 80 |  | 80 |  |  | 80 |  |  |  | 
CN(C)c1nc(NC(=O)NS(=O)(=O)c2ncccc2C2=NOCC2)nc(OCC(F)(F)F)n1 [Ia-8] |  |  |  | 90 |  |  |  |  |  | 80 | 80 |  | 
COc1cc(Cl)nc(NC(=O)NS(=O)(=O)c2ncccc2C2=NOC(C)(C)C2)n1 [Ia-14] |  |  |  |  |  |  | 80 | 90 | 90 |  | 80 |  | 
COc1cc(Cl)nc(NC(=O)NS(=O)(=O)c2ncccc2C2=NOC(C)C2)n1 (centres unmarked) [Ia-16] |  | 80 | 80 | 90 |  | 80 | 100 | 80 | 90 |  | 80 |  | 
COc1cc(C)nc(NC(=O)NS(=O)(=O)c2ncccc2C2=NOC(C)C2)n1 (centres unmarked) [Ia-15] |  | 80 | 80 | 80 |  | 90 | 80 | 80 | 90 |  | 80 |  | 
Clc1ncccc1C1=NOCC1 [XIa-1, 2-Chloro-3-(4,5-dihydroisoxazol-3-yl)pyridine] |  |  |  |  |  |  |  |  |  |  |  | 183 to 185 | 0.97
COc1cc(OC)nc(NC(=O)NS(=O)(=O)c2ncccc2C2=NOC(C)(C)C2)n1 [Ia-13] | 80 | 90 | 80 | 90 | 90 | 90 | 100 | 90 | 90 | 90 | 90 |  | 
COc1cc(C)nc(NC(=O)NS(=O)(=O)c2ncccc2C2=NOCC2)n1 [Ia-9] | 80 |  |  | 90 | 90 | 80 | 90 |  |  | 80 |  |  | 
CCCC1CC(c2cccnc2S(=O)(=O)NC(=O)Nc2nc(C)nc(OC)n2)=NO1 (centres unmarked) [Ia-23] |  |  | 80 |  |  |  |  |  |  |  |  |  | 
COc1cc(SC)nc(NC(=O)NS(=O)(=O)c2ncccc2C2=NOCC2)n1 [Ia-4] | 90 | 80 | 90 |  | 100 | 80 | 90 | 80 | 100 | 80 | 90 |  | 
COc1nc(C)nc(NC(=O)NS(=O)(=O)c2ncccc2C2=NOCC2)n1 [Ia-7] |  |  |  | 90 |  | 80 |  |  |  | 80 |  |  | 
CCC1CC(c2cccnc2S(=O)(=O)NC(=O)Nc2nc(C)cc(OC)n2)=NO1 (centres unmarked) [Ia-19] | 80 | 80 |  | 80 | 80 | 90 | 80 | 80 | 80 |  | 80 |  | 
COc1cc(OC)nc(NC(=O)NS(=O)(=O)c2ncccc2C2=NOC(C(C)C)C2)n1 (centres unmarked) [Ia-10] | 80 | 80 | 80 | 90 | 80 | 90 | 90 | 90 | 100 | 90 | 100 |  | 
COc1cc(Cl)nc(NC(=O)NS(=O)(=O)c2ncccc2C2=NOCC2)n1 [Ia-1, N-[(4-Chloro-6-methoxypyrimidin-2-yl)carbamoyl]-3-(4,5-dihydroisoxazol-3-yl)-pyridine-2-sulfonamide] | 90 | 90 | 90 | 90 | 100 | 80 | 90 | 80 | 90 | 90 | 100 |  | 
COc1nc(NC(=O)NS(=O)(=O)c2ncccc2C2=NOCC2)nc(OC)n1 [Ia-6] |  |  |  | 90 |  |  |  |  | 80 |  |  |  | 
COc1cc(C)nc(NC(=O)NS(=O)(=O)c2ncccc2C2=NOC(C(C)C)C2)n1 (centres unmarked) [Ia-22] | 100 |  |  | 80 | 80 | 80 |  | 80 |  | 80 |  |  | 
CCCC1CC(c2cccnc2S(=O)(=O)NC(=O)Nc2nc(OC)cc(OC)n2)=NO1 (centres unmarked) [Ia-21] | 80 |  | 80 | 80 | 80 | 80 | 80 | 80 | 80 | 80 | 80 |  | 
Cc1cc(C)nc(NC(=O)NS(=O)(=O)c2ncccc2C2=NOCC2)n1 [Ia-3] | 80 | 80 | 80 | 80 | 90 | 80 | 90 | 80 | 100 | 90 | 90 |  | 
CCC1CC(c2cccnc2S(=O)(=O)NC(=O)Nc2nc(OC)cc(OC)n2)=NO1 (centres unmarked) [Ia-24] | 90 | 90 | 90 |  | 90 |  | 90 |  | 80 | 80 | 100 |  | 
CCC1CC(c2cccnc2S(=O)(=O)NC(=O)Nc2nc(Cl)cc(OC)n2)=NO1 (centres unmarked) [Ia-20] |  | 80 |  | 80 |  | 80 | 80 | 80 | 80 |  | 80 |  | 
